The text below walks through data of paper PMC3608651, “A Broad Profile of Co-Dominant Epitopes Shapes the Peripheral Mycobacterium tuberculosis Specific CD8+ T-Cell Immune Response in South African Patients with Active Tuberculosis” (PLoS ONE, 2013).

Where two headings read alike, the source gives them in different places.

Holding throughout (type): binding
The target in one assay is HLA-A*02:01 (Homo sapiens, UniProt P04439, D140Y/D185E/D98H/E176V/E277Q/G131W/G231S/I119V/I121R/I166T/I218V/L300P/L318F/N151K/N90K/P208A/P217A/Q86G/Q94H/R138H/R169H/T345S). Particulars: plate-bound monomer 0.5 µg/ml, duplicated experiments, positive binder >40%.
Another assay deals with HLA-A*24:02 (Homo sapiens, UniProt P04439, D101N/D140Y/D185E/E176V/E190D/F33S/G103R/G107R/I119L/I121M/I306V/K335N/L105A/L180Q/L300P/N151K/N90K/Q86E/Q94H/R106L/R138H/R89G/T104I/T345S/V100E/W191G/Y123F). Particulars: duplicated experiments, positive binder >40%.
Another assay addresses HLA-A*30:01 (Homo sapiens, UniProt P04439, D140H/D185E/E176W/F33S/G80R/H175R/K168Q/R138E/R41S). Particulars: duplicated experiments, positive binder >40%.
The target in the next assay is HLA-A*30:02 (Homo sapiens, UniProt P04439, D101N/D140H/D185E/E176R/F33S/G80R/H175R/K168Q/Q94H/R138E/R41S/V100E). Particulars: duplicated experiments, positive binder >40%.
For assay [1], the target named is T1, HLA-A*68:01 (Homo sapiens, UniProt P04439, A269V/D185E/E176V/E277Q/E87N/F33Y/G231S/I121M/I166T/I218V/L180W/L300P/L318F/N151K/P208A/P217A/Q86R/R169H/T345S). Particulars: duplicated experiments, positive binder >40%.
Assay [2] concerns the target T1, HLA-A*68:01.
For assay [3], the target named is T1, HLA-A*68:01. The settings on record: time points 0-8 h.
Another assay deals with HLA-B*07:02 (Homo sapiens, UniProt P01889). The settings on record: percent relative the binding of positive control peptide […]; duplicated experiments; positive binder >40%.
The target in another assay is HLA-B*58:01 (Homo sapiens, UniProt P01889, A329T/C349S/D201E/D98Y/E176V/E187L/E204Q/E69T/G107R/I218V/I90N/K202T/L105A/L119I/N104I/N87E/Q89R/Q94S/R106L/R155S/R180L/R86G/S101N/S121R/S35A/S48A/T118I/V127L/V306I/V36M/Y140S/Y91M). The settings on record: duplicated experiments, positive binder >40%.
Another assay has as its target HLA-C*07:01 (Homo sapiens, UniProt P10321, K90N/S123Y). Particulars: duplicated experiments, positive binder >40%.
Where [4] appears, read: percent relative the binding of positive control peptide […].
[5] abbreviates: percent relative the binding of positive control peptide FLPSDFFPSV
Where [6] appears, read: percent relative the binding of positive control peptide RYLKDQQLL
Where [7] appears, read: percent relative the binding of positive control peptide KTKDIVNGL
Setting [8] is: percent relative the binding of positive control peptide KIQNFRVYY
Setting [9] is: percent relative the binding of positive control peptide KTGGPIYKR
Setting [10] is: peptide titrated 10−4 to 10−9 M.
The mark [11] stands for this setting: percent relative the binding of positive control peptide IAMESIVIW
Where [12] appears, read: percent relative the binding of positive control peptide KYFDEHYEY

With DW YSPACGK, the “Bind A*02:01” value at HLA-A*02:01 (setting [4]) was found to be 10%. Besides, the “Bind A*24:02” value on HLA-A*24:02 (setting [4]) is on record as 0%. Also, on HLA-A*30:01 (setting [4]), the “Bind A*30:01” value worked out at 11%. For the same substance, the “Bind A*30:02” value on HLA-A*30:02 (setting [4]) is recorded as 0%. Further, the “Bind A*68:01” value at HLA-A*68:01 [1] (setting [4]) came out at 136%. Moreover, the “Aff A*68:01 (ED50)” value on HLA-A*68:01 [2] was determined as 2E -07 M. At HLA-A*68:01 [3], the “O-rate A*68:01 (t1/2)” value worked out at 36 min. The “Bind B*07:02” value at HLA-B*07:02 turned out to be 0%. At HLA-B*58:01 (setting [4]), the “Bind B*58:01” value was 0%. At HLA-C*07:01 (setting [4]), the “Bind C*07:01” value was determined as 0%.
As to ETFLTSELP, the “Bind A*02:01” value at HLA-A*02:01 (setting [4]) stood at 25%. Besides, the “Bind A*24:02” value at HLA-A*24:02 (setting [4]) was found to be 2%. The “Bind A*30:01” value at HLA-A*30:01 (setting [4]) is given as 4%. The “Bind A*30:02” value at HLA-A*30:02 (setting [4]) came to 0%. Also, the “Bind A*68:01” value at HLA-A*68:01 [1] (setting [4]) was found to be 103%. The “Aff A*68:01 (ED50)” value on HLA-A*68:01 [2] was 7e-07 M. Besides, the “O-rate A*68:01 (t1/2)” value at HLA-A*68:01 [3] stood at 6 min. The “Bind B*07:02” value at HLA-B*07:02 was 5%. Further, the “Bind B*58:01” value at HLA-B*58:01 (setting [4]) was found to be 16%. Besides, on HLA-C*07:01 (setting [4]), the “Bind C*07:01” value is 0%.
As to EAAASAIQG [Rv3875_12–20], at HLA-A*02:01 (setting [5]), the “Bind A*02:01” value worked out at 0%. For the same substance, at HLA-A*24:02 (setting [6]), the “Bind A*24:02” value stood at 0%. The “Bind A*30:01” value at HLA-A*30:01 (setting [7]) worked out at 0%. The “Bind A*30:02” value on HLA-A*30:02 (setting [8]) was determined as 0%. Besides, the “Bind A*68:01” value at HLA-A*68:01 [1] (setting [9]) turned out to be 59%. Further, the “Aff A*68:01 (ED50)” value at HLA-A*68:01 [2] (setting [10]) stood at 8e-07 M. At HLA-A*68:01 [3], the “O-rate A*68:01 (t1/2)” value came out at 48 min. In addition, the “Bind B*07:02” value at HLA-B*07:02 was 5%. The “Bind B*58:01” value on HLA-B*58:01 (setting [11]) is on record as 0%. The “Bind C*07:01” value at HLA-C*07:01 (setting [12]) was found to be 0%.
In the case of SSFYSDWYS, at HLA-A*02:01 (setting [4]), the “Bind A*02:01” value worked out at 53%. The “Bind A*24:02” value at HLA-A*24:02 (setting [4]) was 0%. Moreover, the “Bind A*30:01” value at HLA-A*30:01 (setting [4]) worked out at 0%. On HLA-A*30:02 (setting [4]), the “Bind A*30:02” value was determined as 72%. For the same substance, the “Bind A*68:01” value on HLA-A*68:01 [1] (setting [4]) was found to be 103%. Besides, the “Aff A*68:01 (ED50)” value on HLA-A*68:01 [2] turned out to be 1e-07 M. Besides, the “O-rate A*68:01 (t1/2)” value at HLA-A*68:01 [3] was determined as 6 min. Further, the “Bind B*07:02” value on HLA-B*07:02 was 0%. At HLA-B*58:01 (setting [4]), the “Bind B*58:01” value is recorded as 0%. Further, the “Bind C*07:01” value on HLA-C*07:01 (setting [4]) stood at 1%.
Consider LPQW LSANR, for which, at HLA-A*02:01 (setting [4]), the “Bind A*02:01” value amounted to 6%. Besides, the “Bind A*24:02” value at HLA-A*24:02 (setting [4]) stood at 26%. Also, on HLA-A*30:01 (setting [4]), the “Bind A*30:01” value was 29%. Further, the “Bind A*30:02” value on HLA-A*30:02 (setting [4]) came to 0%. Moreover, the “Bind A*68:01” value at HLA-A*68:01 [1] (setting [4]) was 167%. Besides, the “Aff A*68:01 (ED50)” value at HLA-A*68:01 [2] came out at 6E -08 M. In addition, the “O-rate A*68:01 (t1/2)” value at HLA-A*68:01 [3] was determined as 246 min. In addition, at HLA-B*07:02, the “Bind B*07:02” value is given as 31%. The “Bind B*58:01” value at HLA-B*58:01 (setting [4]) is given as 0%. Moreover, the “Bind C*07:01” value on HLA-C*07:01 (setting [4]) was found to be 0%.
Take WGAQLNAMK: the “Bind A*02:01” value at HLA-A*02:01 (setting [4]) turned out to be 7%. The “Bind A*24:02” value on HLA-A*24:02 (setting [4]) is given as 0%. Moreover, the “Bind A*30:01” value on HLA-A*30:01 (setting [4]) was determined as 0%. Besides, the “Bind A*30:02” value on HLA-A*30:02 (setting [4]) is 67%. The “Bind A*68:01” value on HLA-A*68:01 [1] (setting [4]) is recorded as 153%. The “Aff A*68:01 (ED50)” value at HLA-A*68:01 [2] came out at 3E -07 M. Also, the “O-rate A*68:01 (t1/2)” value at HLA-A*68:01 [3] came out at 144 min. For the same substance, the “Bind B*07:02” value on HLA-B*07:02 is recorded as 0%. In addition, the “Bind B*58:01” value at HLA-B*58:01 (setting [4]) is 0%. In addition, the “Bind C*07:01” value on HLA-C*07:01 (setting [4]) was found to be 5%.
EAYQGVQQK [Rv3875_49–57]: the “Bind A*02:01” value on HLA-A*02:01 (setting [5]) is recorded as 0%. Besides, the “Bind A*24:02” value on HLA-A*24:02 (setting [6]) was 0%. Further, the “Bind A*30:01” value at HLA-A*30:01 (setting [7]) turned out to be 0%. Besides, at HLA-A*30:02 (setting [8]), the “Bind A*30:02” value was 0%. For the same substance, the “Bind A*68:01” value on HLA-A*68:01 [1] (setting [9]) is given as 74%. In addition, the “Aff A*68:01 (ED50)” value at HLA-A*68:01 [2] (setting [10]) came out at 4e-08 M. Besides, the “O-rate A*68:01 (t1/2)” value at HLA-A*68:01 [3] came to 450 min. Besides, on HLA-B*07:02, the “Bind B*07:02” value was 10%. Moreover, the “Bind B*58:01” value on HLA-B*58:01 (setting [11]) amounted to 0%. For the same substance, the “Bind C*07:01” value at HLA-C*07:01 (setting [12]) amounted to 0%.
